These results are taken from patent US20240342292A1, “Compounds for the Degradation of EGFR Kinase” (BeiGene Switzerland GmbH, priority 2021, published 2024).

For orientation: DC50 means the concentration giving 50% degradation. Low readings indicate a more potent degrader, high ones a less potent degrader. One may read the Dmax as the greatest extent of degradation seen. High values mean a fuller loss of target, low ones a partial loss of target.

Type in all cases: cell-based
Assay [1] deals with Del19/T790M/C797S EGFR. Briefly: EGFR degradation HTRF assay in H1975-clone #28 (DTC) cells. Conditions: H1975 # 28 DTC (Del19/T790M/C797S), 16h treatment; for DC50: HTRF; for Dmax (%): maximum percentage of degradation. The essentials:
(§1)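 Remaining EGFR protein was measured by HTRF (337 nm excitation, 665/620 nm emission) in lysates after overnight antibody incubation. Cells had been exposed for 16 h to an 8-point, 5-fold series starting at 10 uM, and DC50 values were fitted with a Hill equation.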
A general note: TR-FRET usually uses a lanthanide donor and a delayed reading to cut background.

The target of assay [2] is T1, L858R/T790M/C797S EGFR (Homo sapiens, UniProt P00533, C797S/L858R/T790M).
T1 construct: expressed in transfected cells; host or cells: H1975 clone #25 (lentiviral over-expression, endogenous EGFR knocked out by sgRNA)
T1 sequence (P00533 25-1210 T790M/C797S/L858R): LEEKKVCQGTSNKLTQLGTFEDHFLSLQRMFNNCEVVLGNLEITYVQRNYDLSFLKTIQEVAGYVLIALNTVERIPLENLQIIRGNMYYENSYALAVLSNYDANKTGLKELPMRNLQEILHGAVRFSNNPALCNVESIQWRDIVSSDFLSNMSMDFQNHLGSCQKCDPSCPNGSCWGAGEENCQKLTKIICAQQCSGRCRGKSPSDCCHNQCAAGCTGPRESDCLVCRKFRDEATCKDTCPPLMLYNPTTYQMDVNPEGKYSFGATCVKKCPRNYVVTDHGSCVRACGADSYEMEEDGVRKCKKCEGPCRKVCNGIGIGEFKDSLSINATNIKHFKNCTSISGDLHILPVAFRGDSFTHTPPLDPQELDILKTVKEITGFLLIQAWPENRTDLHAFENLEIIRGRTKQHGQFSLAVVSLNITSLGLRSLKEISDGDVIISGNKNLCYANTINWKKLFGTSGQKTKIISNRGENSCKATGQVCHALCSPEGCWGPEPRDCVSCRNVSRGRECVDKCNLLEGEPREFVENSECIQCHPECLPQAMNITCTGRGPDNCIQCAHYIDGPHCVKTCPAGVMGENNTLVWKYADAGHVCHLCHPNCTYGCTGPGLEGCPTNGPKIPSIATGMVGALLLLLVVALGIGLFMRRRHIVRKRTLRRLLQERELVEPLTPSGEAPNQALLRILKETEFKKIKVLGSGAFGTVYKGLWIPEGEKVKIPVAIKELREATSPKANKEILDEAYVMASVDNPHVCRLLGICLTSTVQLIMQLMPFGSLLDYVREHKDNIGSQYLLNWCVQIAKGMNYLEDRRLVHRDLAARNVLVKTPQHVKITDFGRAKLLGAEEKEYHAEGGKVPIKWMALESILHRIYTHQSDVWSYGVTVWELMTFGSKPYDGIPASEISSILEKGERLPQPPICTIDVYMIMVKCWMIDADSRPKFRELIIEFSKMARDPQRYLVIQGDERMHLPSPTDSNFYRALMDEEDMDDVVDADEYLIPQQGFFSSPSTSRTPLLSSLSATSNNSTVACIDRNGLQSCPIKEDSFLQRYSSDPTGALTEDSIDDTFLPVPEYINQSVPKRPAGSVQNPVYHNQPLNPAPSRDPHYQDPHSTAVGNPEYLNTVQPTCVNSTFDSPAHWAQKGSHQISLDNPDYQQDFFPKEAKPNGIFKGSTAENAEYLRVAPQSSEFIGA
Briefly: EGFR degradation HTRF assay in H1975-clone #25 (LTC) cells. Conditions: 16h treatment; for DC50: H1975 # 25-LTC (L858R/T790M/C797S), HTRF; for Dmax: NCI-H1975, H1975 # 25-LTC (L858R/T790M/C797S), maximum percentage of degradation. The essentials:
as §1

Assay [3] deals with Del19/C797S EGFR. Briefly: EGFR degradation HTRF assay in H1975-clone #23 (DC) cells. As to conditions: H1975 #23 DC (Del19/C797S), 16h treatment; for DC50: HTRF; for Dmax (%): maximum percentage of degradation. The text has this:
(§2) H1975-clone #28(Del19/T790M/C797S, or abbr: DTC), H1975-clone #23(Del19/C797S, or abbr: DC), H1975-clone #25(L858R/T790M/C797S, or abbr: LTC) and H1975-clone #8 (L858R/C797S, or abbr: LC). EGFR-Del19:T790M/C797S, EGFR-Del19/C797S, EGFR-L858R/T790M/C797S and EGFR-L858R/C797S were stably expressed in H1975 cell lines by lentivirus-mediated over-expression, respectively. The EGFR over-expressed cells then underwent knockout, in which the EGFR targeting sgRNA was designed to only target the endogenous EGFR copies and preserve the exogenous EGFR copies. Followed by the knockout, the edited H1975 cells were seeded in 96 well plates at the concentration of […], cultured for about 2 weeks to allow single clones formation. The formed clones were screened by DNA sequencing and whole exon sequencing analysis for the desired edition. H1975-clone #28, H1975-clone #23, H1975-clone #25 and H1975-clone #8 were finally confirmed as homozygous Del19/T790M/C797S EGFR, Dell9/C797S EGFR, L858R/T790M/C797S EGFR and L858R/C797S EGFR clones, respectively.
(§3) H1975-#25, H1975-#28, H1975-#23 and H1975-#8 cells are treated with compounds diluted in 0.2% DMSO cell culture medium on day 2, incubate for 16h, 37° C., 5% CO2. the final concentration of compounds in all assay is start with 10 uM, 5-fold dilution, total 8 doses were included.
(§4) After 16h treatment, add HTRF lysis buffer to each well; seal the plate and incubate 1 hour at room temperature on a plate shaker; Once the cells are lysed, 16 μL of cell lysate are transferred to a PE 384-well HTRF detection plate; 4 μL of pre-mixed HTRF antibodies are added to each well; Cover the plate with a plate sealer, spin 1000 rpm for 1 min, Incubate overnight at room temperature; Read on BMG PheraStar with HTRF protocol (337 nm-665 nm-620 nm).
(§5) The IC50 (DC50) value of a compound can be obtained by fitting the following equation
(§6) Y=Bottom+(TOP−Bottom)/(1+((IC50/X)^hillslope))
(§7) Wherein, X and Y are known values, and IC50, Hillslope, Top and Bottom are the parameters obtained by fitting with software. Y is the inhibition percentage (calculated from the equation), X is the concentration of the compound: IC50 is the concentration of the compound when the 50% inhibition is reached. The smaller the IC50 value is, the stronger the inhibitory ability of the compound is. Vice versa, the higher the IC50 value is, the weaker the ability the inhibitory ability of the compound is: Hillslope represents the slope of the fitted curve, generally around 1*; Bottom represents the minimum value of the curve obtained by data fitting, which is generally 0%±20%; Top represents the maximum value of the curve obtained by data fitting, which is generally 100%±20%. The experimental data were fitted by calculating and analyzing with Dotmatics data analysis software.

For assay [4], the target named is T2, L858R/C797S EGFR (Homo sapiens, UniProt P00533, C797S/L858R).
T2 construct: expressed in transfected cells; host or cells: H1975 clone #8 (lentiviral over-expression, endogenous EGFR knocked out by sgRNA)
T2 sequence (P00533 25-1210 C797S/L858R): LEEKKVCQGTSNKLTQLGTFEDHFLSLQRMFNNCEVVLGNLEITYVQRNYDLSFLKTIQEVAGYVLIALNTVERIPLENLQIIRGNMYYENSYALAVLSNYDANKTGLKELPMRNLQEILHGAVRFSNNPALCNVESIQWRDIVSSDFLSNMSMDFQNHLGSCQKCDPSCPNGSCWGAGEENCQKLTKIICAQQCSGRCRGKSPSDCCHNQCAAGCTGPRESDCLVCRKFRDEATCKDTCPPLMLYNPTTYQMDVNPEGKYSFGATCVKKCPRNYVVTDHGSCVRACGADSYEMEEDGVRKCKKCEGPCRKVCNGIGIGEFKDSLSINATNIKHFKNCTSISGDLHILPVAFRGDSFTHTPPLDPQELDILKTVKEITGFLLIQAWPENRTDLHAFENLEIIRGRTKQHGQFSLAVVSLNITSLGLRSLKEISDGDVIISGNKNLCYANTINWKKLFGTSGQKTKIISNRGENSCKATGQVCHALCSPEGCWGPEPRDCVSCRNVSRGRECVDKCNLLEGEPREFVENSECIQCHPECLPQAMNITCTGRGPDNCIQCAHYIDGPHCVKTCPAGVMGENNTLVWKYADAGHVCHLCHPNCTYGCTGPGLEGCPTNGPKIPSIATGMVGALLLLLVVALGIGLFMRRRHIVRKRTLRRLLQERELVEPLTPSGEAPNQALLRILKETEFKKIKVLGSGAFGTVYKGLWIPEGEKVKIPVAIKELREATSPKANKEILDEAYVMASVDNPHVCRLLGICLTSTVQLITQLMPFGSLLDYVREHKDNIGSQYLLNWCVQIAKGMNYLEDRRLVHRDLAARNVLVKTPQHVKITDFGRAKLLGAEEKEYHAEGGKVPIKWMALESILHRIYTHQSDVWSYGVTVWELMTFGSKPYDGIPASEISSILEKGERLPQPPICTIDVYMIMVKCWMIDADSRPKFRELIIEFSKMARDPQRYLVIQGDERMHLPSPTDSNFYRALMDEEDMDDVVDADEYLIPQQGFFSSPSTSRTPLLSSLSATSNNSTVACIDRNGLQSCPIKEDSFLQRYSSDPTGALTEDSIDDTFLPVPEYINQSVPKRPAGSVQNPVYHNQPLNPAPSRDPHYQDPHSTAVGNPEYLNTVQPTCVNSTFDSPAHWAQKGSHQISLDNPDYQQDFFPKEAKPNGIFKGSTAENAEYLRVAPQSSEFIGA
Briefly: EGFR degradation HTRF assay in H1975-clone #8 (LC) cells. As to conditions: H1975 #8 LC (L858R/C797S), 16h treatment; for DC50: HTRF; for Dmax: NCI-H1975, maximum percentage of degradation.
From the text: as §2, §3, §4, §5, §6, §7

`Cc1cc2cc(n1)-c1cnn(C)c1OCCC[C@@H](C)CN1/C(=N/C2=O)Nc2ccc(CN3CCC(N4CCN(C(=O)[C@@H]5CCN(c6cc(F)c([C@H]7CCC(=O)NC7=O)c(F)c6)C5)CC4)CC3)cc21` [Example 6, (R)-3-(2,6-difluoro-4-((R)-3-(4-(1-(((R,E)-1^1,2^6,7-trimethyl-3-oxo-5^2,5^3-dihydro-1^1H,5^1H-11-oxa-4-aza-5(2,1)-benzo[d]imidazola-2(2,4)-pyridina-1(4,5)-pyrazolacycloundecaphane-5^6-yl)methyl)piperidin-4-yl)piperazine-1-carbonyl)pyrrolidin-1-yl)phenyl)piperidine-2,6-dione]: the DC50 was 0.8 nM in assay [1], 1.1 nM in assay [2], 1.7 nM in assay [3] and 3 nM in assay [4]. Also, the entries for the “Dmax (%)” value in assay [1] and in assay [3] were 85.7% and 78.2%, respectively. For the same compound, the Dmax in assay [2] stood at 89.9%; in assay [4], 63.1%.

On to `Cc1cc2cc(n1)-c1cnn(C)c1OCCC[C@@H](C)CN1/C(=N/C2=O)Nc2ccc(CN3CCC4(CC3)CCN(C(=O)[C@@H]3CCN(c5cc(F)c([C@H]6CCC(=O)NC6=O)c(F)c5)C3)CC4)cc21` [Example 9, (R)-3-(2,6-difluoro-4-((R)-3-(9-(((R,E)-1^1,2^6,7-trimethyl-3-oxo-5^2,5^3-dihydro-1^1H,5^1H-11-oxa-4-aza-5(2,1)-benzo[d]imidazola-2(2,4)-pyridina-1(4,5)-pyrazolacycloundecaphane-5^6-yl)methyl)-3,9-diazaspiro[5.5]undecane-3-carbonyl)pyrrolidin-1-yl)phenyl)piperidine-2,6-dione], for which the DC50 in assay [1] worked out at 1.7 nM; in assay [2], 0.8 nM; in assay [3], 1 nM; in assay [4], 3.2 nM. Moreover, the “Dmax (%)” value in assay [1] is 76.4%; in assay [3] it was 82.6%. The Dmax in assay [2] turned out to be 90.1%; in assay [4], 64.6%.
